The values that follow are results of earlier work, collected in patent publication US20080293709A1, “Novel 2-Amino-Heterocycles Useful in the Treatment of Abeta-Related Pathologies” (AstraZeneca AB, priority 2005, published 2008).

The target of this series is BACE (Homo sapiens, UniProt P56817).

Non-standard residues stand in square brackets, D forms with d. Residues, ends and D or L forms follow the SMILES beside them. *: point of attachment. Sta = CC(C)C[C@H](N)[C@@H](O)CC(=O)O; Isovaleryl = CC(C)CC(=O)*

Chain of BACE (P56817 46-501): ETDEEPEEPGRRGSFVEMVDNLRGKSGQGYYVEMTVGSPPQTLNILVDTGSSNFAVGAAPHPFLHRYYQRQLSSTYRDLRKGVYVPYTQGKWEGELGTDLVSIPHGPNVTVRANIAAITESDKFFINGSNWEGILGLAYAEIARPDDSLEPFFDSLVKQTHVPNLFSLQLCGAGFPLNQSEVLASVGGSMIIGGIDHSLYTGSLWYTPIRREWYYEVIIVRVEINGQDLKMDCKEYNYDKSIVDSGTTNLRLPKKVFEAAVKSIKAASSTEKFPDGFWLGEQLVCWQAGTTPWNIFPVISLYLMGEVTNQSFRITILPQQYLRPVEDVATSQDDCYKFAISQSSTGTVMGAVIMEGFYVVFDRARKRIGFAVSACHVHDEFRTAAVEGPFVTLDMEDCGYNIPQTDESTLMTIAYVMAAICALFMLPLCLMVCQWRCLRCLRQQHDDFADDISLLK

For `CC(C)CC(=O)N[C@H](C(=O)N[C@H](C(=O)N[C@@H](CC(C)C)[C@@H](O)CC(=O)N[C@@H](C)C(=O)N[C@@H](CC(C)C)[C@@H](O)CC(=O)O)C(C)C)C(C)C` [pepstatin] (Isovaleryl-VV[Sta]A[Sta]-OH), the “inhibition of BACE” value was “inhibited weakly”.
